# US20230285372A1, “Pharmaceutical use of (E)-3-arylheterocyclylprop-2-enoic acid derivatives” (MEDCURIUS INC., priority 2020, published 2023)
# Counter-ions that a name gives are not always drawn. Like-named read-outs stand apart in the source and are kept apart here.
# Assays:
# [1] = system: HT-22 cells; test: Protective effect on HT-22 cell damage caused by L-glutamate monosodium salt; format: cell-based, mouse; conditions: 15 mM L-glutamate; for viability at 0.078 µM / viability at 0.156 µM / viability at 0.625 µM / viability at 1.25 µM / viability at 5 µM / viability at 10 µM / viability at 2.5 µM / viability at 0.313 µM: Mus musculus, 24 hours; for protection of HT22 cells against L-glutamate monosodium salt damage, in words: comparison with positive control drug DMF
# Protocol: (§1) Well-proliferated HT-22 cells, derived from mouse hippocampal neuronal cells in logarithmic growth phase, were selected, and they were counted after being subjected to trypsin digestion and dispersion. The cell density was adjusted with DMEM/F12 medium (containing 10% FBS and 1% double antibody). The cells were then inoculated in a 96-well plate at a density of 2,000 cells per well, and cultured in a cell incubator at 37° C. in atmosphere containing 5% CO2 for 24 hours. For the control group and the L-glutamate monosodium salt group (model group), serum-free DMEM/F12 medium was added, and the other wells were added with tested compounds of different concentrations; except that the serum-free DMEM/F12 medium was added to the control group. L-glutamate monosodium salt solution at the final concentration of 15 mM was added to the remaining wells. After 24 hours, the cell viability was detected with a luminescent cell viability assay kit.
# as §1, with “group,” for “group.”
# as §1, with “2.000” for “2,000”, “group,” for “group.”
# [2] = system: SH-SY5Y cells; test: Protective effect on SH-SY5Y cell damage caused by oxygen-glucose deprivation/reperfusion; format: cell-based; conditions: OGD 4 hours then 24 hours, CCK-8, model 56.83
# Protocol: SH-SY5Y cells in logarithmic growth phase were selected, the culture medium was discarded, the cells were digested with 0.25% Trypsin containing EDTA, and cell suspension was made. Cell density was adjusted to 30,000/ml with DMEM/F12 medium (containing 10% FBS and 1% double antibody) and it was inoculated to 96-well plate, 100 μL/well, the number of cells per well was 3,000, and the cells were cultured in a cell incubator at 37° C. in an atmosphere containing 5% CO2 for 24 hours. After 24 hours, the cells were washed twice with the Earle's solution. For the control group, 100 μL oxygenated Earle's solution was added in each well, and for the remaining groups, 100 μL oxygen-free Earle's solution after nitrogen bubbling was added, and the oxygen content in an anoxic chamber was kept below 0.5%, and models were made in the cell incubator for 4 hours. […] After 24 hours, CCK-8 cell viability test kit was used to detect the cell viability.
# [3] = HT-22, 24 h, Table 1, Conc 0.078 μm, L-Glu alone 27.73 (I-5 32.92), read-out: cell viability
# [4] = HT-22, 24 h, Table 1, Conc 0.156 μm, L-Glu alone 27.73 (I-5 32.92), read-out: cell viability
# [5] = HT-22, 24 h, Table 1, Conc 0.625 μm, L-Glu alone 27.73 (I-5 32.92), read-out: cell viability
# [6] = HT-22, 24 h, Table 1, Conc 1.25 μm, L-Glu alone 27.73 (I-5 32.92), read-out: cell viability
# [7] = HT-22, 24 h, Table 1, Conc 5 μm, L-Glu alone 27.73 (I-5 32.92), read-out: cell viability
# [8] = HT-22, 24 h, Table 1, Conc 10 μm, L-Glu alone 27.73 (I-5 32.92), read-out: cell viability
# [9] = HT-22, 24 h, Table 1, Conc 2.5 μm, L-Glu alone 27.73 (I-5 32.92), read-out: cell viability
# [10] = HT-22, 24 h, Table 1, Conc 0.313 μm, L-Glu alone 27.73 (I-5 32.92), read-out: cell viability
# [11] = HT-22, Table 2, Conc 2.5 μM, L-Glu alone 27.83, read-out: Visibility %
# [12] = HT-22, Table 2, Conc 10 μM, L-Glu alone 27.83, read-out: Visibility %
# [13] = HT-22, Table 2, Conc 0.078 μM, L-Glu alone 27.83, read-out: Visibility %
# [14] = HT-22, Table 2, Conc 0.625 μM, L-Glu alone 27.83, read-out: Visibility %
# [15] = HT-22, Table 2, Conc 0.156 μM, L-Glu alone 27.83, read-out: Visibility %
# [16] = HT-22, Table 2, Conc 5 μM, L-Glu alone 27.83, read-out: Visibility %
# [17] = HT-22, Table 2, Conc 0.313 μM, L-Glu alone 27.83, read-out: Visibility %
# [18] = HT-22, Table 2, Conc 1.25 μM, L-Glu alone 27.83, read-out: Visibility %
smiles,measurement,setting,value
COC(=O)/C=C/c1ccccn1 [Compound I-1],viability at 0.078 µM,[1]; [3],38.7%
same,viability at 0.156 µM,[1]; [4],45.7%
same,viability at 0.625 µM,[1]; [5],47.9%
same,viability at 1.25 µM,[1]; [6],43.5%
same,viability at 5 µM,[1]; [7],38.4%
same,viability at 10 µM,[1]; [8],33.4%
COC(=O)/C=C/c1cccnc1 [Compound I-3],viability at 0.078 µM,[1]; [3],46.8%
same,viability at 0.156 µM,[1]; [4],50.6%
same,viability at 0.625 µM,[1]; [5],46.8%
same,viability at 1.25 µM,[1]; [6],45.2%
same,viability at 2.5 µM,[1]; [9],47.5%
same,viability at 5 µM,[1]; [7],37.3%
same,viability at 10 µM,[1]; [8],31.2%
COC(=O)/C=C/c1ccncc1 [Compound I-4],viability at 0.078 µM,[1]; [3],45.1%
same,viability at 0.156 µM,[1]; [4],44.1%
same,viability at 0.313 µM,[1]; [10],42.7%
same,viability at 0.625 µM,[1]; [5],42.3%
same,viability at 1.25 µM,[1]; [6],41.3%
same,viability at 2.5 µM,[1]; [9],40.5%
same,viability at 5 µM,[1]; [7],40.2%
same,viability at 10 µM,[1]; [8],37.6%
N#C/C=C/c1cccnc1 [Compound I-6],viability at 0.078 µM,[1]; [3],40.1%
same,viability at 0.156 µM,[1]; [4],43.3%
same,viability at 0.313 µM,[1]; [10],42.9%
same,viability at 1.25 µM,[1]; [6],40.9%
same,viability at 2.5 µM,[1]; [9],43%
same,viability at 5 µM,[1]; [7],40.1%
same,viability at 10 µM,[1]; [8],42.6%
N#C/C=C/c1ccncc1 [Compound I-7],viability at 0.078 µM,[1]; [3],48.8%
same,viability at 0.156 µM,[1]; [4],48%
same,viability at 0.313 µM,[1]; [10],42.8%
same,viability at 0.625 µM,[1]; [5],40.6%
same,viability at 1.25 µM,[1]; [6],55.5%
same,viability at 5 µM,[1]; [7],32.2%
CON(C)C(=O)/C=C/c1ccccn1 [Compound I-8],"protection of HT22 cells against L-glutamate monosodium salt damage, in words",[1],better effects than the positive control drug DMF
same,viability at 0.156 µM,[1]; [4],77.8%
same,viability at 0.313 µM,[1]; [10],70.6%
same,viability at 0.625 µM,[1]; [5],71.1%
same,viability at 1.25 µM,[1]; [6],54.6%
same,viability at 2.5 µM,[1]; [9],54.8%
same,viability at 5 µM,[1]; [7],50.9%
same,viability at 10 µM,[1]; [8],53%
CON(C)C(=O)/C=C/c1cccnc1 [Compound I-9],viability at 0.078 µM,[1]; [3],35.5%
same,viability at 0.156 µM,[1]; [4],35.8%
same,viability at 0.313 µM,[1]; [10],40.8%
same,viability at 0.625 µM,[1]; [5],45.8%
same,viability at 1.25 µM,[1]; [6],41.6%
same,viability at 2.5 µM,[1]; [9],40.1%
same,viability at 5 µM,[1]; [7],43.4%
same,viability at 10 µM,[1]; [8],40.1%
CON(C)C(=O)/C=C/c1ccncc1 [Compound I-10],viability at 0.078 µM,[1]; [3],44.7%
same,viability at 0.156 µM,[1]; [4],43%
same,viability at 0.313 µM,[1]; [10],43.7%
same,viability at 0.625 µM,[1]; [5],43.3%
same,viability at 1.25 µM,[1]; [6],41.9%
same,viability at 2.5 µM,[1]; [9],47.8%
same,viability at 5 µM,[1]; [7],43.4%
same,viability at 10 µM,[1]; [8],37.5%
CN(C)C(=O)/C=C/c1ccccn1 [Compound I-11],viability at 0.078 µM,[1]; [3],42.4%
same,viability at 0.156 µM,[1]; [4],42.2%
same,viability at 0.313 µM,[1]; [10],46.1%
same,viability at 0.625 µM,[1]; [5],44.2%
same,viability at 1.25 µM,[1]; [6],43.6%
same,viability at 2.5 µM,[1]; [9],46.5%
same,viability at 5 µM,[1]; [7],35.4%
same,viability at 10 µM,[1]; [8],40.3%
CN(C)C(=O)/C=C/c1cccnc1 [Compound I-12],viability at 0.078 µM,[1]; [3],48.9%
same,viability at 0.313 µM,[1]; [10],50.8%
same,viability at 0.625 µM,[1]; [5],49.5%
same,viability at 1.25 µM,[1]; [6],45.6%
same,viability at 2.5 µM,[1]; [9],44.2%
same,viability at 5 µM,[1]; [7],39.3%
same,viability at 10 µM,[1]; [8],44.3%
CN(C)C(=O)/C=C/c1ccncc1 [Compound I-13],"protection of HT22 cells against L-glutamate monosodium salt damage, in words",[1],better effects than the positive control drug DMF
same,viability at 0.078 µM,[1]; [3],52.4%
same,viability at 0.156 µM,[1]; [4],58.8%
same,viability at 0.625 µM,[1]; [5],64.9%
same,viability at 1.25 µM,[1]; [6],61.6%
same,viability at 2.5 µM,[1]; [9],59.7%
same,viability at 5 µM,[1]; [7],51.5%
same,viability at 10 µM,[1]; [8],51.6%
COC(=O)NC(=O)/C=C/c1ccccn1 [Compound I-15],viability at 2.5 µM,[1]; [11],43.1%
same,viability at 10 µM,[1]; [12],34.1%
COC(=O)NC(=O)/C=C/c1cccnc1 [Compound I-16],viability at 0.078 µM,[1]; [13],41.3%
same,viability at 0.625 µM,[1]; [14],34.2%
same,viability at 2.5 µM,[1]; [11],40.4%
COC(=O)NC(=O)/C=C/c1ccncc1 [Compound I-17],viability at 0.156 µM,[1]; [15],48.3%
same,viability at 0.625 µM,[1]; [14],51.2%
same,viability at 5 µM,[1]; [16],33.6%
same,viability at 10 µM,[1]; [12],31.2%
COC(=O)/C=C/c1ncccn1 [Compound I-18],viability at 5 µM,[1]; [16],40.9%
CN(C)C(=O)/C=C/c1ncccn1 [Compound I-19],viability at 0.078 µM,[1]; [13],47.1%
same,viability at 0.156 µM,[1]; [15],39.2%
same,viability at 0.313 µM,[1]; [17],37.5%
CN(C)C(=O)/C=C/c1ccncn1 [Compound I-20],viability at 0.156 µM,[1]; [15],43.4%
same,viability at 2.5 µM,[1]; [11],57.1%
same,viability at 10 µM,[1]; [12],51.2%
CON(C)C(=O)/C=C/c1ccncn1 [Compound I-21],viability at 2.5 µM,[1]; [11],60.3%
same,viability at 10 µM,[1]; [12],58.4%
COC(=O)/C=C/c1ncc[nH]1 [Compound I-22],viability at 1.25 µM,[1]; [18],40%
same,viability at 2.5 µM,[1]; [11],42.7%
COC(=O)/C=C/c1nccn1C [Compound I-23],"protection of HT22 cells against L-glutamate monosodium salt damage, in words",[1],equivalent to that of a positive control drug DMF
same,viability at 0.078 µM,[1]; [13],65.4%
same,viability at 0.313 µM,[1]; [17],38.3%
same,viability at 1.25 µM,[1]; [18],39%
CN(C)C(=O)/C=C/c1nccn1C [Compound I-24],viability at 0.156 µM,[1]; [15],39.6%
same,viability at 0.313 µM,[1]; [17],38%
same,viability at 2.5 µM,[1]; [11],35.7%
Cc1coc(/C=C/C#N)n1 [Compound I-26],"protection of HT22 cells against L-glutamate monosodium salt damage, in words",[1],perform far better than the positive control drug DMF
COC(=O)/C=C/c1ncco1 [Compound I-27],"protection of HT22 cells against L-glutamate monosodium salt damage, in words",[1],perform better than the positive control drug DMF
COC(=O)/C=C/c1nc(C)cs1 [Compound I-28],"protection of HT22 cells against L-glutamate monosodium salt damage, in words",[1],perform far better than the positive control drug DMF
Cc1csc(/C=C/C#N)n1 [Compound I-30],"protection of HT22 cells against L-glutamate monosodium salt damage, in words",[1],perform better than the positive control drug DMF
"CC1=NN(c2ccccc2)C(=O)C1 [Edaravone, reference compound]",Visibility %,[2]; Conc 0.078 μM,59.41%
same,Visibility %,[2]; Conc 0.156 μM,62.42%
same,Visibility %,[2]; Conc 10 μM,67.39%
N#C/C=C/c1ccccn1 [I-5 HCl],Visibility %,[2]; Conc 0.078 μM,67.72%
same,Visibility %,[2]; Conc 0.156 μM,67.82%
same,Visibility %,[2]; Conc 0.313 μM,69.35%
same,Visibility %,[2]; Conc 0.625 μM,74.72%
